According to paper PMC9034499, “RORγt agonist enhances anti-PD-1 therapy by promoting monocyte-derived dendritic cells through CXCL10 in cancers” (Journal of Experimental & Clinical Cancer Research : CR, 2022):
pKd: −log10 of the molar value.

Key:
EL4 cells = assay: Direct toxicity on tumor cells (apoptosis, CCK-8); type: cell-based; details: even at higher concentrations of 8-074
Protocol: To exclude the direct cytotoxic killing effect of 8-074 on tumor cells, we conducted an apoptosis assay, a cell proliferation assay, and a cytotoxic toxicity assay on tumor cells upon 8-074 treatment.
Supplementary file 13046_2022_2289_MOESM2_ESM.pdf: Additional file 2: Fig. S2. Selectivity of RORγt agonists in vitro. (a) The activity of 8-074 in Gal4 reporter gene assays with RORα and RORβ. (RORα EC50 > 10 μM, RORβ EC50 > 10 μM). (b) Summary of bioactivity and selectivity profiles for 8-074 using multiple assays. (c) 8-074 treated Type 17 T cells secreted more Th17 signature cytokines. IL-17F and IL-22 levels secreted by Type 17 T cells during differentiation were assayed by ELISA (*P < 0.05, **P < 0.01). (d) CCK-8 assay was used to determine the cell viability of EL4 cells after treating them with different 8-074 concentrations. Representative data are shown from three independent experiments. […] Lymphoma EL4 cells were treated with various concentrations of 8-074 for 48 hours and analyzed by flow cytometry after Annexin V-FITC/PI staining. […] (h) The relative mRNA expression of Cd19 in B cells as determined by qPCR. […] (i) Relative mRNA expression of Il-1β levels in macrophages as determined by qPCR. ***P < 0.001. (j) Relative mRNA expression of Il-6 in macrophages as determined by qPCR. *P < 0.05. (k) Relative mRNA expression of Il-10 in macrophages as determined by qPCR. *P < 0.05. […]

RORγt LBD protein = target: T1, RORγt LBD protein (Homo sapiens, UniProt P51449); assay: Biacore binding to RORγt LBD protein; details: RORγt protein immobilized on CM5 chip
T1 construct: RORγt (residues 263–509)-GGG-SRC1; GGG linker + SRC1 peptide (C); His-tag (inferred from pET28a and nickel purification); made in house; host or cells: E. coli strain DE3, pET28a
T1 sequence (P51449 263-509): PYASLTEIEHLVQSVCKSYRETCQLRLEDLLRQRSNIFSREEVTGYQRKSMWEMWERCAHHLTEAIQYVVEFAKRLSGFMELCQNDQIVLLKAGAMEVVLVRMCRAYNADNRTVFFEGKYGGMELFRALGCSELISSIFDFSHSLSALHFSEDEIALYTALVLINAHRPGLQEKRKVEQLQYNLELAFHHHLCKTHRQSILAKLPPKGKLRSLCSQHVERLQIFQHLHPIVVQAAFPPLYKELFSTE
Excerpt: Human nuclear receptor RORγt (residues 263–509)-GGG-SRC1 (SRC1 sequence: EKHKILHRLLQDS, Sangon Biotech, Shanghai). RORγt LBD was cloned in pET28a. Key residue mutations of RORγt LBD (such as PHE388, LEU391, CYS393, LEU396, ILE397, ILE400, CYS320, ALA321, LEU324, MET358, and PHE388) with LYC-55716 were cloned in pET28a. Key residue mutations of RORγt LBD (MET365, ALA368, PHE401, ILE400, ILE397, LEU396, TRP317, CYS320, LEU324, ALA327, TYR330, VAL331, MET358, and VAL361) with 8-074 were cloned in pET28a. The proteins were expressed in E. coli strain DE3. Then, the transformed E. coli culture was grown at 37 °C with 30 μg/mL Kanamycin LB (Luria–Bertani). When the OD600 of LB medium reached 0.6, the temperature was changed to 16 °C, and isopropyl-β-D-thiogalactopyranoside (IPTG, Beyotime, Shanghai, China) was added at a final concentration of 0.4 mM to induce protein expression for 16 h. After 16 h, the pellet was collected after centrifugation at 4,000 rpm for 15 min at 4 °C. […]
The RORγt protein was immobilized on a CM5 chip (GE Health, Chicago, USA) using Biaocre 8 K. A sensogram was obtained using different serial concentrations of 8-074 (5000 nM, 2500 nM, 1250 nM, 625 nM, 312.5 nM, 156.25 nM, 78.125 nM, and 39.0625 nM). […] Data were analyzed using Biacore Evaluation Software.

- pKd (RORγt LBD protein): 6.30
SMILES: CCS(=O)(=O)c1ccc(CC(=O)Nc2ccc(-c3ccc(CC(C)C)c(C#N)c3)c(C(F)(F)F)c2)cc1 [8-074]
- apoptosis in the tumor EL4 cells (EL4 cells): not observed
- cytotoxicity on tumor cells (EL4 cells): not observed
